Entries after “also recorded” stand apart in the source; their conditions may differ. d = 2'-deoxy (DNA); r = 2'-OH (RNA)
Experiments:
[1] = tested on: RAI-3 mRNA; assay: RAI-3 mRNA by real-time PCR after treatment of cells with ATRA; type: cell-based, human; conditions: 24 hours
Procedure: 1×10^6 cells of each of the HEK 293, H292 and BEAS-2B cell lines were seeded into two (replicate) 100 mM cell culture dishes containing 20 ml of RPMI complete medium which contained L-glutamine, 10% fetal bovine serum and 1% Penicillin-Streptomycin (Gibco/BRL). To one 100 mM dish, 0.2 μl of DMSO were added. To the other 100 mM dish, 0.2 μl of 10 mM ATRA (Sigma R-2625, St. […] After 24 hours at 37° C. and 5% CO2, cells were lysed with Buffer RLT (Qiagen, Hilden, Germany) and total RNA was harvested pursuant to the Rneasy Midi Kit protocol (Qiagen, Hilden, Germany). RAI-3 messenger RNA levels were measured by Real-time PCR as described below in Example 1(N).
SYBR Green PCR amplification was performed on an ABI PRISM 7700 Sequence Detection System (PE Applied Biosystems, Foster City, Calif.), and the reaction was carried out using SYBR Green PCR Core reagents (PE Applied Biosystems). Real time PCR was carried out at 40 cycles with the following parameters: 95° C. for 15 seconds and 60° C. for 60 seconds, with a pre-incubation period of 50° C. for 2 minutes, followed by 95° C. for 10 minutes. All amplification was normalized to β-actin gene amplification in the linear portion of the amplification curves. Data were then expressed as a fold increase over a reference tissue or cell type.

[2] = tested on: muc5AC protein; assay: muc5AC ELISA of supernatants of H292 cells exposed to cigarette smoke-bubbled media; type: cell-based, human; conditions: transfected H292 cells, CS-10 for 72 hours, triplicate; listed as RAI-3 siRNA 1864+1865
Procedure: At 24 hours post siRNA transfection, the media was changed to serum-free RPMI media containing 20 mM Glutamine and 1% Penicillin-Streptomycin and incubated at 37° C., 5% CO2, for 24 hours. At 48 hours post transfection, the serum-free RPMI media was removed from the cells and replaced with 1.0 ml of cigarette smoke-bubbled medium (i.e., CS-10, the equivalent of 10 cigarettes per 500 ml of cell culture medium) for 72 hours (96 hours post-transfection) or control. At 72 hours (96 hours post-transfection), 100 ul×3 of supernatent from each well in the 24-well plate was transferred to 96-well plate for ELISA analysis.
A muc5AC coating antibody, Gastric Mucin Ab-1 45M1 (NeoMarkers, Fremont, Calif.) was diluted 1:1000 to 1 ug/ml final in 50 mM NaHCO3 pH 9 and coated onto a standard 96-well ELISA plate overnight at room temperature with rotating. The next day the plate was washed three times with 1×PBS/0.05% Tween 20 (PBS-T) and blocked with 200 ul of blocking buffer, 1×PBS/1% BSA final (30% solution, Sigma-Aldrich Co. Saint Louis, Mo.). […] The next day the wells were washed three times with PBS-T. Muc5AC protein in the supernatent was detected with Peroxidase-Labeled Lectin from Glycine Max (Sigma-Aldrich, St. Louis, Mo.) diluted to 1ug/ml in 1×PBS/1% BSA final. […] Color reactions were stopped with 100 μl/well 1 N. H2SO4 and the absorbency at 450 nm-650 nm was measured.

Compound | RAI-3 mRNA levels ([1]; H292 cells (high basal level of RAI-3 expression)) | RAI-3 mRNA levels ([1]; HEK 293, BEAS-2B and H292 cells, ATRA 1 μM) | average ELISA signal, muc5AC protein in the supernatant [2]
CC1=C(/C=C/C(C)=C/C=C/C(C)=C/C(=O)O)C(C)(C)CCC1 [ATRA, all-trans retinoic acid] | modest, but measurable increase | increase; also recorded: induced | 
RAI-3 siRNA reagent 1864+1865: annealed double stranded siRNA r(GGUGCAGGACUCCAACAGG)d(TT) and r(CCUGUUGGAGUCCUGCACC)d(TT), SEQ ID NO:94 and 95 (chain 1 GGUGCAGGACUCCAACAGGTT; chain 2 CCUGUUGGAGUCCUGCACCTT; sugars from the 5' end r19 d2, backbone not given here) |  |  | significantly reduced

— US7517652B2, “Methods of diagnosing tumors using the G-protein coupled receptor (GPCR), RAI-3” (Bristol-Myers Squibb Company, priority 2002, dated 2009)
